Assay results reported in US12527779B2, “Prostaglandin E2 (PGE2) EP4 receptor antagonists” (Domain Therapeutics, priority 2019, dated 2026).

Molecular target: T1, human EP4 (hEP4) receptor (Homo sapiens, UniProt P35408)
T1 construct: expressed in transfected cells; host or cells: HEK-293 T cells, transient co-transfection with polyethylenimine
Assay: In vitro human EP4 functional antagonist activity using BRET biosensors (cAMP EPAC biosensor, TCS2510 stimulation)
Type: cell-based
Conditions: antagonist activity vs EC60 TCS2510, hEP4 in HEK-293 T cells
Summary of the method: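 HEK-293T cells transiently co-transfected with hEP4 and EPAC cAMP BRET biosensor (luciferase/GFP), assayed 48 h later in HEPES-buffered saline after 1 h at 22 °C. After 5 min with compound, cells stimulated with EC60 TCS2510 and BRET read for 10 min; IC50 from 10-point, 4.5-log variable-slope fits, duplicate, two experiments.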

T1 sequence (P35408 whole entry): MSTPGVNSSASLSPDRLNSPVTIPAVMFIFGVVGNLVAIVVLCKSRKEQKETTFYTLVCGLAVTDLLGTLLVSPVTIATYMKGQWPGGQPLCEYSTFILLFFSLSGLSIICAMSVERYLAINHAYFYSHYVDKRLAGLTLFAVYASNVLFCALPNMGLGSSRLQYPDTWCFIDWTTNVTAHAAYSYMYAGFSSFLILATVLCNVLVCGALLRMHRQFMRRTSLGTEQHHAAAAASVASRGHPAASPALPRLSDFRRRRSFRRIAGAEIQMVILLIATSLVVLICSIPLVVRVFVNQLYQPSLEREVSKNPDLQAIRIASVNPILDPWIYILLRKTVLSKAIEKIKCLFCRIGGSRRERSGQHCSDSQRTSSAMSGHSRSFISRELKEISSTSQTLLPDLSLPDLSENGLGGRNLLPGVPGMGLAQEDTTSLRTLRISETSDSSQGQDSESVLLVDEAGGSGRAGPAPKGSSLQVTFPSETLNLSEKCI

## C[C@H](NC(=O)C1(N2CC[C@@H](Oc3cccc(C(F)(F)F)c3)C2)CC1)c1ccc(C(=O)O)cc1.Cl [Example 166, 4-[(1S)-1-[[1-[(3R)-3-[3-(Trifluoromethyl)phenoxy]pyrrolidin-1-yl]cyclopropane-1-carbonyl]amino]ethyl]benzoic acid, hydrochloride]
  IC50: < 100 nM
